In the supplement of paper PMC5412046:
Counter-ions that a name gives are not always drawn.

Test system: SB.msgc-1
Test: AC50 for growth inhibition (viability) (log10 M); higher = less potent
Settings: SB.msgc-1 (sporadic gastric cancer)
Procedure, shortened: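 In 1536-well plates, each well held 500 patient-derived gastric cancer cells (hereditary or sporadic) in 5 μL medium. Compound in DMSO, 23 nL per well, was pinned in 11 threefold dilutions starting at a final 46 μM. Following 48 h of exposure, cells had CellTiter-Glo for 30 min at room temperature before ViewLux luminescence reading. Only high-quality curve classes from four-parameter fits of DMSO-normalised viability gave the log half-maximal activity concentration.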

Row | SMILES | AC50 for growth inhibition (log10 M)
1 | CC(C)CN(C[C@@H](O)[C@H](Cc1ccccc1)NC(=O)O[C@H]1CO[C@H]2OCC[C@H]21)S(=O)(=O)c1ccc(N)cc1 [Darunavir] | -5.63
2 | Cc1nc(Nc2ncc(C(=O)Nc3c(C)cccc3Cl)s2)cc(N2CCN(CCO)CC2)n1 [Dasatinib] | -5.73
3 | O=C(O)c1ccc(-n2nc(-c3ccccc3O)nc2-c2ccccc2O)cc1 [Deferasirox] | -4.93
4 | COc1ccc2c(c1)CN(C)CC2c1ccc(Cl)c(Cl)c1 (stereo not given) [Diclofensine] | -4.73
5 | C/C=C(/C(=C/C)c1ccc(O)cc1)c1ccc(O)cc1 [Dienestrol] | -5.08
6 | OCCN(CCO)c1nc(N2CCCCC2)c2nc(N(CCO)CCO)nc(N3CCCCC3)c2n1 [Dipyridamole] | -4.68
7 | C[C@@H]1CCO[C@H]2CN\3/C=C(/C(=O)NCC4=C(F)C=C(F)C=C4)C(=O)\C(=C3C(=O)N12)O [Dolutegravir] | -4.78
8 | C[C@@H]1[C@H]\2[C@H](O)[C@H]3[C@H](N(C)C)\C(=C(C(N)=O)/C(=O)[C@@]3(O)\C(=C2C(=O)C4=C(O)C=CC=C14)O)O [Doxycycline] | -4.68
9 | NC(=O)C1CCCc2c1[nH]c1ccc(Cl)cc21 (stereo not given) [EX-527] | -4.78
10 | CS[C@H]1SC[C@@H]2C(=O)N(C)[C@H](C(C)C)C(=O)OC[C@H](NC(=O)c3cnc4ccccc4n3)C(=O)N[C@H](C)C(=O)N(C)[C@H]1C(=O)N(C)[C@H](C(C)C)C(=O)OC[C@H](NC(=O)c1cnc3ccccc3n1)C(=O)N[C@H](C)C(=O)N2C [Echinomycin] | -8.33
11 | NCCCC(N)(C(=O)O)C(F)F (stereo not given) [Eflornithine Hydrochloride] | -4.78
12 | CC1=NN(c2ccc(C)c(C)c2)C(=O)/C1=N/Nc1cccc(-c2cccc(C(=O)O)c2)c1O [Eltrombopag olamine] | -4.83
13 | CCCCCCCCCCCC/1=C(O)/C(=O)/C=C(O)\C1=O [Embelin] | -6.03
14 | COc1cc([C@@H]2c3cc4c(cc3[C@@H](O[C@@H]3O[C@@H]5CO[C@@H](C)O[C@H]5[C@H](O)[C@H]3O)[C@H]3COC(=O)[C@H]23)OCO4)cc(OC)c1O [Etoposide] | -5.33
15 | C[C@]12CC[C@H]3[C@@H](CC(=C)\C4=C\C(=O)\C=C/[C@]34C)[C@@H]1CCC2=O [Exemestane] | -4.83
16 | COC1=CC=CC=C1C2=CC=CC(=C2)C/3=C(O)/C4=CC(=C(Cl)C=C4NC3=O)C#N [FASN MRK] | -4.37
17 | C=CC[C@@H]1/C=C(\C)C[C@H](C)C[C@H](OC)[C@H]2O[C@@](O)(C(=O)C(=O)N3CCCC[C@H]3C(=O)O[C@H](/C(C)=C/[C@@H]3CC[C@@H](O)[C@H](OC)C3)[C@H](C)[C@@H](O)CC1=O)[C@H](C)C[C@@H]2OC [FK-506] | -5.18
18 | N=C(CCSCc1csc(N=C(N)N)n1)N[S+](N)(=O)[O-] [Famotidine] | -4.78
19 | Clc1ccc(C(Cn2ccnc2)OCc2ccc(Sc3ccccc3)cc2)c(Cl)c1 (stereo not given) [Fenticonazole nitrate] | -4.73
20 | OC1=CC2=C(C=C1)C(=O)\C(=C(O2)\C3=CC(=C(O)C=C3)O)O [Fisetin] | -4.63
21 | NC/1=N/C(=O)N/C=C1F [Flucytosine] | -4.88
22 | CCOC(=O)c1ncn2c1CN(C)C(=O)c1cc(F)ccc1-2 [Flumazenil] | -4.63

Row | SMILES | AC50 for growth inhibition (log10 M)
23 | CC(C)n1c(/C=C/[C@H](O)C[C@H](O)CC(=O)[O-])c(-c2ccc(F)cc2)c2ccccc21 [Fluvastatin] | -5.38
24 | CCOP(=O)(OCC)C(C)NC(=O)N(CCCl)N=O (stereo not given) [Fotemustine] | -5.13
25 | CN(C)C1=C(Br)C=C(C=C1)C\2NC3=C(\C4=C2C(=O)CC(C)(C)C4)C5=CC=CC=C5C=C3 (stereo not given) [GLS968] | -5.23
26 | Cc1c(CN2CCN([S+](C)(=O)[O-])CC2)sc2c(N3CCOCC3)nc(-c3cnc(N)nc3)nc12 [GNE-477] | -7.68
27 | NC(=O)c1cccc(-c2cc(Nc3ccc(OC(F)(F)F)cc3)ncn2)c1 [GNF 2] | -4.73
28 | O=C(Nc1nc2cccc(-c3ccc(CN4CC[S+](=O)([O-])CC4)cc3)n2n1)C1CC1 [GPLG-0634] | -4.73
29 | CC(C)(C)OC(=O)CN(Cc1ccc(Cl)cc1)Cc1ccc([N+](=O)[O-])s1 [GSK-4112] | -4.68
30 | Cc1cc(SCc2sc(-c3ccc(C(F)(F)F)c(F)c3)nc2C)ccc1OCC(=O)O [GW-0742] | -4.78
31 | O=C1Nc2ccc(I)cc2/C1=C/c1cc(Br)c(O)c(Br)c1 [GW-5074] | -4.93
32 | N\C1=N\C2=C(N=C[N]2COC(CO)CO)C(=O)N1 [Ganciclovir] | -5.28
33 | CNC1[C@@H](O)C(O[C@@H]2C(O)C(O[C@H]3O[C@H]([C@@H](C)NC)CC[C@H]3N)[C@@H](N)C[C@H]2N)OC[C@]1(C)O (stereo not given in full) [Gentamycin sulfate] | -4.73
34 | O=c1cc(O)c(Cl)c[nH]1 [Gimeracil] | -4.68
35 | Cc1cnc(C(=O)NCCc2ccc([S+](=O)([O-])NC(=O)NC3CCCCC3)cc2)cn1 [Glipizide] | -4.78
36 | COCCOC(=O)C/1=C(C)/NC/2=C(C1C3=CC=CC(=C3)O)/C(=O)CC(C2)C4=C(OC)C=CC=C4 (stereo not given) [HPI-1] | -4.73
37 | CN(C)CCN(Cc1ccc(Cl)cc1)c1ccccn1.Cl [Halopyramine] | -4.68
38 | CC(C)(C)OC(=O)Nc1ccc(-c2cc(C(=O)NCCCCCCC(=O)NO)no2)cc1 [ISOX] | -5.58
39 | Cc1cc(/C=c2/sc3nc4ccccc4n3c2=O)c(C)n1-c1ccccc1 [ITX3] | -4.88
40 | CC1=CC=C2N=C(NC(=O)CS\C3=N\C4=C(\SCC4)C(=O)N3C5=CC=CC=C5)SC2=C1 [IWP-2] | -5.18
41 | CCCCCCCN(CC)CCCC(O)c1ccc(NS(C)(=O)=O)cc1.CCCCCCCN(CC)CCCC(O)c1ccc(NS(C)(=O)=O)cc1.O=C(O)/C=C/C(=O)O (stereo not given) [Ibutilide fumarate] | -4.68
42 | COC1=CC=C(C=C1)C/2=C(OC3O[C@@H](C)[C@H](O)[C@@H](O)[C@H]3O)/C(=O)C4=C(O2)C(=C(OC5O[C@H](CO)[C@@H](O)[C@H](O)[C@H]5O)C=C4O)CC=C(C)C (stereo not given in full) [Icariin] | -4.93
43 | CC(=O)N(C)c1cccc(-c2ccnc3c(C(=O)c4cccs4)cnn23)c1 [Indiplon] | -4.68
44 | O=C1Nc2ccccc2/C1=C1\Nc2ccccc2C1=O [Indirubin] | -5.18

Row | SMILES | AC50 for growth inhibition (log10 M)
45 | C/C=C(/C)C(=O)O[C@H]1C(C)=C[C@]23C(=O)[C@@H](C=C(CO)[C@@H](O)[C@]12O)[C@H]1[C@@H](C[C@H]3C)C1(C)C [Ingenol mebutate] | -7.18
46 | CC(C)OC1=CC=C2C(=C1)O\C=C(/C2=O)C3=CC=CC=C3 [Ipriflavone] | -4.78
47 | Cc1csc(NC(=O)c2sc3nc4c(c(C(F)(F)F)c3c2N)CCC4)n1 [Irestatin 9389] | -4.68
48 | CCn1c(=O)c2c(nc(/C=C/c3ccc(OC)c(OC)c3)n2C)n(CC)c1=O [Istradefylline] | -4.73
49 | CCC(C)N1\N=C/N(C1=O)C2=CC=C(C=C2)N3CCN(CC3)C4=CC=C(OC[C@H]5CO[C@@](C[N]6C=NC=N6)(O5)C7=CC=C(Cl)C=C7Cl)C=C4 (stereo not given in full) [Itraconazole] | -5.58
50 | COc1cc2c(cc1OC)CC(=O)N(CCCN(C)C[C@H]1Cc3cc(OC)c(OC)cc31)CC2.Cl [Ivabradine hydrochloride] | -4.58
51 | CCOc1ccc(Nc2nc(-c3c(C)nc4ccccn34)cs2)cc1 [JK 184] | -6.43
52 | N#CC(c1ccnc(NCCc2cccnc2)n1)c1nc2ccccc2s1 (stereo not given) [JNK Inhibitor V] | -4.73
53 | C[S+](=O)([O-])N(Cc1ccco1)CC(O)Cn1c2ccccc2c2ccccc21 (stereo not given) [KL001] | -4.68
54 | CCCNC(=O)Nc1ccc(Oc2ncnc3cc(OC)c(OC)cc23)cc1Cl [KRN-633] | -4.68
55 | O=C/1\C=C(/OC(=C1)/C2=C3SC4=C(SC3=CC=C2)C=CC=C4)N5CCOCC5 [KU-0064] | -4.63
56 | CCc1c(O)cc(O)c(C(=O)c2ccc(OCCN3CCOCC3)c(OC)c2)c1CC(=O)N(CCOC)CCOC [KW-2478] | -6.58
57 | CC(=O)N1CCN(c2ccc(OC[C@H]3CO[C@](Cn4ccnc4)(c4ccc(Cl)cc4Cl)O3)cc2)CC1 [Ketoconazole] | -4.83
58 | CC(C(=O)O)c1cccc(C(=O)c2ccccc2)c1 (stereo not given) [Ketoprofen] | -5.03
59 | O=C(CS(=O)Cc1ccco1)NC/C=C\COc1cc(CN2CCCCC2)ccn1 (stereo not given) [Lafutidine] | -5.08
60 | C[S+](=O)([O-])CCNCc1ccc(-c2ccc3ncnc(Nc4ccc(OCc5cccc(F)c5)c(Cl)c4)c3c2)o1 [Lapatinib] | -7.93
61 | C[S+](=O)([O-])c1cc(F)cc2c3c(n(Cc4ccc(Cl)cc4)c12)[C@@H](CC(=O)O)CC3 [Laropiprant] | -5.43
62 | CCC[C@H](Nc1nc(-c2ccc(NC(=O)NCC)c(OC)c2)ncc1C)c1cccnc1 [Lexibulin hydrochloride] | -7.83
63 | CC1(C)Cc2c(-c3ccccc3)c(-c3ccc(Cl)cc3)c(CC(=O)O)n2C1 [Licofelone] | -4.73
64 | O=NN(CCCl)C(=O)NC1CCCCC1 [Lomustine] | -4.83
65 | CN(C)C(=O)C(CCN1CCC(O)(c2ccc(Cl)cc2)CC1)(c1ccccc1)c1ccccc1 [Loperamide hydrochloride] | -4.78
